Results on one compound are retold here after patent US10912741B2, “Prevention of liver cancer with safranal-based formulations” (United Arab Emirates University, priority 2019, dated 2021).

Test [1] has as its system protein carbonyl (P. carbonyl). The test is described as follows: Protein carbonyl content in liver homogenate, DEN/2-AAF hepatocarcinogenesis model. It is filed as in vivo, albino Wistar rats. As to conditions: mean±SEM, 8 rats. On the procedure: The experimental hepatocarcinogenesis model was developed according to a protocol by […] et al. that was adapted for our purposes. To initiate and promote hepatocarcinogenesis, diethylnitrosamine (DEN) and 2-acetylaminofluorene (2-AAF) were used, respectively. For hepatocarcinogenesis initiation in this model, a single DEN dose (200 mg/kg b.wt.) dissolved in saline was injected intraperitoneally. After initiation, all rats underwent one period of 5-days fasting, as mitotic proliferative stimuli. To promote hepatocarcinogenesis, 2-acetylaminofluorene (2-AAF) was introduced in the form of six daily intragastric doses (30 mg/kg in 1% Tween 80); two weeks after DEN treatment. […] at doses of 25 mg/kg by weight (b.wt.) and 50 mg/kg b.wt, was administrated orally to rats. These doses have been reported to suppress chemically-induced oxidative damage in rats. A total of 40 adult male albino Wistar rats were randomly divided into […] (n=8) and were subjected to different treatments. Group 1 (control) was orally administered distilled water (5 ml/kg b.wt.) throughout the experimental duration and were injected with a single dose of saline. Group 2 ([…] only) was subjected to a safranal dose (50 mg/kg b.wt.) through oral administration for the duration of the experimental period. Hepatocarcinogenesis was induced by DEN and promoted by 2-AAF, as reported previously, in group 3 (HCC). […] Glutathione (GSH) content was determined by analyzing liver homogenates, according to the method of Van Dooran et al. The assay depends on measuring yellow 5-thiol-2-nitrobenzoate absorbance at 412 nm. Glutathione-S-transferase (GST) activity was determined using the method of Habig et al. GST catalyzes the conjugation of GSH thiol group with 1-Chloro-2,4-dinitrobenzene (CDNB), which can be measured by determining the increase in absorbance at 340 nm. […] CAT decomposes hydrogen peroxide (H2O2) to oxygen and water; therefore, the activity of CAT was evaluated according to by the exponential decomposition of H2O2 at 240 nm. […] UV-160-Shimadzu recording spectrophotometer was used to record absorbances. […]

The test system of test [2] is TNF-α. The test is described as follows: TNF-α level in serum by ELISA. It is filed as in vivo, albino Wistar rats. On the procedure: (§1) The experimental hepatocarcinogenesis model was developed according to a protocol by Espandiaria et al. that was adapted for our purposes. To initiate and promote hepatocarcinogenesis, diethylnitrosamine (DEN) and 2-acetylaminofluorene (2-AAF) were used, respectively. For hepatocarcinogenesis initiation in this model, a single DEN dose (200 mg/kg b.wt.) dissolved in saline was injected intraperitoneally. After initiation, all rats underwent one period of 5-days fasting, as mitotic proliferative stimuli. To promote hepatocarcinogenesis, 2-acetylaminofluorene (2-AAF) was introduced in the form of six daily intragastric doses (30 mg/kg in 1% Tween 80); two weeks after DEN treatment.
(§2) Safranal at doses of 25 mg/kg by weight (b.wt.) and 50 mg/kg b.wt, was administrated orally to rats. These doses have been reported to suppress chemically-induced oxidative damage in rats. A total of 40 adult male albino Wistar rats were randomly divided into […] (n=8) and were subjected to different treatments. Group 1 (control) was orally administered distilled water (5 ml/kg b.wt.) throughout the experimental duration and were injected with a single dose of saline. […]
TNF-α level in serum was quantitatively measured using Enzyme-Linked Immunosorbent Assay (ELISA), according to the manufacturer instructions (ELISA kits (R&D Systems), Minnesota, USA. Results are presented in picograms/milligrams.
(ELISA stands for enzyme-linked immunosorbent assay.)

Test [3] relates to HeLa cells. The conditions noted are these: reported in the background; cited from earlier work.
Test [4] concerns human prostate cancer PC-3 cell lines. As to conditions: PC-3 cell line, reported in the background; cited from earlier work.
For test [5], the system named is DNA fragmentation (TUNEL-positive cells). The test is described as follows: TUNEL assay of liver sections (apoptosis). Format: in vivo, albino Wistar rats. On the procedure: as §1, §2
TUNEL assay was performed for the purpose of assessing apoptosis. […] DNA fragmentation, a key indicator of apoptosis, is detected using this kit. […]

For `CC1=C(C=O)C(C)(C)CC=C1` [Safranal, 2,6,6-trimethylcyclohexa-1,3-diene-1-carbaldehyde], the P.Carbonyl was 1.45 ± 0.06 nmol/mg protein in test [1] (HCC (DEN/2-AAF) rats + safranal high dose 50 mg/kg b.wt. oral, 12 weeks); 1.61 ± 0.06 nmol/mg protein in test [1] (HCC (DEN/2-AAF) rats + safranal low dose 25 mg/kg b.wt. oral, 12 weeks); 1.52 ± 0.03 nmol/mg protein in test [1] (safranal alone 50 mg/kg b.wt. oral, no DEN (group 2)). In addition, the “TNF-α level in serum” value in test [2] (low/high doses of safranal after DEN exposure (groups 4-5)) is “significant reduction in TNF-α expression”; in test [2] (safranal alone (group 2), vs control group), “no significant impact”. Also, the “growth of HeLa cells” value in test [3] is “inhibit the growth of HeLa cells”. Also, in test [4], the apoptosis result is reported as “induce apoptosis”. The “number of TUNEL-positive cells” value in test [5] (low/high doses of safranal in animals exposed to DEN, compared to group 3) is “significant increase in the number of both TUNEL- and M30 CytoDeath-positive cells”; in test [5] (safranal only (group 2), compared to control group), “did not exhibit a notable change”.
